Measurements from patent US11271238B2, “Applications of low-cost, thermal and electrochemically stable organic compounds as high performance redox active materials in redox flow batteries” (Utah State University, priority 2018, dated 2022).
Like-named read-outs stand apart in the source and are kept apart here.

Columns and labels:
[1] = cited from earlier work
[2] = Oxygen sensitivity of the reduced state (bubbling with air for 10 minutes); format: physicochemical
[3] = Cyclic voltammetry in 0.5 M NaCl; format: physicochemical
Protocol: Cyclic voltammetry was further used to characterize [(NPr)2TTz]Cl4.r All cyclic voltammetry experiments were conducted in an N2 purged 0.5 M NaCl aqueous solution with a Gamry 1000E potentiostat. A 3 mm PEEK encased glassy carbon disk was used as the working electrode. The working electrode was polished with 0.05 micron Al2O3 powder and rinsed with deionized H2O. A glassy carbon rod was used as the counter electrode. A silver wire coated with AgCl and suspended in 3.0 M KCl electrolyte was used as the reference electrode. The two redox peaks of [(NPr)2TTz]Cl4 were distinguished by peak fitting of its CV curve in the Origin program after removing background current.

[4] = Linear sweep voltammetry with rotating disk electrode (Levich plot); format: physicochemical; conditions: 1.0 mM in 0.5 M NaCl, Levich equation
Protocol: Linear sweep voltammetry (LSV) experiments were conducted using a Gamry 1000E potentiostat with a three-electrode system. A 5 mm diameter rotating glassy carbon disk encased in Teflon served as the working electrode. A glassy carbon rod was used as the counter electrode. An Ag/AgCl wire served as the reference electrode. The working electrode was cleaned using the same method as in the CV experiments. During the experiments, the working electrode rotated from 300 rpm to 2400 rpm at increments of 300 rpm. Three scans at each rotation rate were collected to ensure accuracy. LSV scans were conducted at a rate of 5 mV/s from 0.2 V to 0.8 V versus NHE.

[5] = Electron transfer rate constant by Nicholson's method; format: physicochemical
Protocol: The electron transfer rate constants (k^0) for the electron transfers of [([…]]^3+ were estimated. Following the well-known Nicholson's method (R. S. Nicholson, Anal. Chem. 1965, 37, 1351-1355.), a solution containing 4.0 mM [(NPr)2TTz]Cl4 with 0.5 M NaCl was used to record CV curves (FIG. 6A and FIG. 6B). The peak-to-peak separation (reduction and oxidation peak potential gap), ΔEp, was obtained and used to calculate the kinetic parameter, Ψ, using Equation 2. And then, k^0 was calculated from equation 3 based on the relationship between Ψ and ν^-1/2. Ψ=(-0.6288+0.0021ΔEp)/(1-0.017ΔEp) (Equation 2) Ψ=k^0[πDnF/RT]^-1/2ν^-1/2 (Equation 3) where F, D, and n are defined in Equation 1, R=8.314, and ν represents the scan rate.

Aqueous solubility = format: physicochemical
[6] = 500 mV/s scan rate, 4.0 mM in 0.5 M NaCl

C[n+]1ccc(-c2cc[n+](C)cc2)cc1 [Methyl viologen]
air sensitivity of reduced states ([1]; MV^+ and MV^0): highly air sensitive
solubility of charge-neutral state in aqueous solution ([1]; aqueous solution): insolubility

C[N+](C)(C)CCCN1C=CC(=c2nc3sc(=C4C=CN(CCC[N+](C)(C)C)C=C4)nc3s2)C=C1.[Cl-].[Cl-] [[(NPr)2TTz]Cl2, 3,3′-(thiazolo[5,4-d]thiazole-2,5-diylidenebis(pyridin-1(4H)-yl-4(4H)-ylidene))bis(N,N,N-trimethylpropan-1-aminium) Dichloride]
oxygen sensitivity of the two-electron reduced state [2]: no change in color

C[N+](C)(C)CCC[n+]1ccc(-c2nc3sc(-c4cc[n+](CCC[N+](C)(C)C)cc4)nc3s2)cc1.[Cl-].[Cl-].[Cl-].[Cl-] [[(NPr)2TTz]Cl4, 4,4′-(thiazolo[5,4-d]thiazole-2,5-diyl)bis(1-(3-(trimethylammonio)propyl)pyridin-1-ium) tetrachloride]
E1/2 of 1st electron reduction ([(NPr)2TTz]^4+/3+) ([3]; 4.0 mM in 0.5 M NaCl): −0.38 V vs. NHE
E1/2 of 2nd electron reduction ([(NPr)2TTz]^3+/2+) ([3]; 4.0 mM in 0.5 M NaCl): −0.50 V vs. NHE
average redox potential of the two single-electron reductions ([3]; neutral NaCl solution): -0.44 V
average diffusion coefficient (D) for [(NPr)2TTz]^4+ and [(NPr)2TTz]^3+ [4]: 3.15×10^−6 cm^2 s^−1
peak-to-peak separation ΔEp, 1st electron reduction [5, 6]: 53 mV
peak-to-peak separation ΔEp, 2nd electron reduction [5, 6]: 58 mV
electron transfer rate constant k^0, both single-electron reductions ([5]; lower limit, Ψ=20, 500 mV/s): greater than 0.28 cm/s
solubility (Aqueous solubility; 2.0 m NaCl aqueous solution, saline or isotonic, in 2.0 m NaCl, read-out: solubility in 2.0 m NaCl): 1100 mM
charge capacity corresponding to solubility (Aqueous solubility; in 2.0 m NaCl): 60.0 Ah L^−1
charge capacity corresponding to solubility (Aqueous solubility; in H2O): 69.7 Ah L^−1
solubility (Aqueous solubility; water, in H2O, read-out: solubility in water): 1300 mM

C[n+]1ccc(-c2nc3sc(-c4cc[n+](C)cc4)nc3s2)cc1.[Cl-].[Cl-] [(Me2TTz)Cl2, N,N′-dimethyl 2,5-bis(4-pyridinium)thiazolo[5,4-d]thiazole Dichloride]
water solubility (Aqueous solubility; in water): < 10 mm

N, N, N, 2, 2, 6, 6-Heptamethylpiperidinyloxy-4-ammonium Chloride [N^Me-TEMPO, reference compound]
single-electron oxidation potential ([3]; neutral NaCl solution): +1.0 V (vs. NHE)
